Results as given in patent US4990650A, “Aromatic derivative and preparation method thereof” (Teijin Limited, priority 1986, dated 1991).

What was measured:
LTB4 production [1] = test: LTB4 production inhibition effect on iris of normal house rabbit; format: cell-based; settings: Oryctolagus cuniculus, n=4; for inhibition at 100 µM: 10^-4 M; for inhibition at 10 µM: 10^-5 M; for inhibition at 1 µM: 10^-6 M; for inhibition at 0.1 µM: 10^-7 M
Description: LTB4 production inhibition effect on iris of normal house rabbit
The iris of a normal house rabbit was enucleated, dipped in 1 cc of Tylord solution for control and 1 cc of Tylord solution containing a certain level of medicament, and after 5 minutes, the Tylord solution was passed through a SEP-pack, the portion containing leucotriene was separated by HPLC, and the LTB4 amount was measured by radioimmunoassay. (n=4)

LTB4 production [2] = test: LTB4 production inhibition effect on human blood (Calcium ionophore-stimulated whole blood); format: cell-based; settings: 10^-5 M Calcium ionophore, Control 20
Description: LTB4 production inhibition effect on human blood
A 10^-5 M amount of Calcium ionophore was added to human whole blood, followed by adding the compounds listed in Table 2 to evaluate the inhibition effect of these compounds on LTB4 production. The evaluation was carried out in a manner described in Gresele, P., Arnoult, J., Coene, M. C., Deckmyn, H., and Vermylen, J.: Leukotriene B4 production by stimulated whole blood: Comparative studies with isolated polymorphonuclear cells, Biochem. Biophys. Res. Commun. 137: 334-342, 1986.

[3] = test system: intraocular inflammation by Lipopoly saccharide from E. Coli; test: Effect of eye drops on endotoxin intraocular inflammation by Lipopoly saccharide from E. Coli; format: in vivo, white male house rabbit; settings: 20 hours after LPS
Description: Effect on intraocular inflammation by Lipopoly saccharide from E. Coli
The eye drops of the compound (3), i.e., anthranylic acid amide of 8-(2-naphthyl)-5,6-trans-5,6-methano-7E-octenoic acid was prepared by formulating 3.8 mg of the compound (3) in 0.1 ml of ethanol followed by adding 0.9 ml of teel oil to obtain eye drops containing 0.38% of compound (3). The pH was 6.8.
The eye drops of the compound (7), i.e., 3,4-dimethoxy cinnamic acid ester of 8-(2-naphthyl)-5,6-trans-5,6-methano-7E-octene-1-ol were prepared by dissolving 5.3 mg of the compound (7) in 0.1 ml of ethanol upon heating at 70° C. to 80° C. followed by adding 0.9 ml of teel oil to obtain eye drops containing 0.53% of compound (7). The pH was 6.8.
Into one eye of a white male house rabbit having a body weight of 1.5 to 2.0 kg, were dropped the eye drops of the compounds (3) and (7), at 6 hours, 4 hours, and 1 hour before the experiment, and into the other eye, control eye drops containing 0.1 ml ethanol and 0.9 ml teel oil were dropped in the same manner.
To the vitreous body, 5 μg of lipopoly saccharide from E. coli (commercially available from Sigma) in 50 μl of physiolological saline was dropped. After 20 hours, the aqueous humor was taken and the protein content of the aqueous humor was determined by a Bio-rad assay method and the leucocyte in the aqueous humor was determined by a Neubauer Chamber. The LTB4 in the aqueous humor was determined by the HPLC and RIA methods.

## COC(=O)c1ccccc1NC(=O)CCC[C@H]1C[C@@H]1/C=C/c1ccc2ccccc2c1 (relative stereo) [Compound (3), Methyl anthranylate amide of 8-(2-naphthyl)-5,6-trans-5,6-methano-7E-octenoic acid]
LTB4 production [1]
  inhibition at 100 µM: 95%
  inhibition at 10 µM: 95%
  inhibition at 1 µM: 89%
  inhibition at 0.1 µM: 67%
LTB4 production [2]; 10^-5 M
  LTB4 production Amount: 11 µg/mL
LTB4 production [2]; 10^-6 M
  LTB4 production Amount: 12 µg/mL
LTB4 production [2]; 10^-7 M
  LTB4 production Amount: 15 µg/mL
[3]; eye drops 0.38% at 6, 4 and 1 hour before, Control 10.1 × 10^5
  Leucocyle in aqueous: 6.0 × 10^5 cells/ml
[3]; eye drops 0.38% at 6, 4 and 1 hour before, Control 30
  Aqueous protein: 40 mg/mL
[3]; eye drops 0.38% at 6, 4 and 1 hour before, Control 150
  LTB4 in aqueous: 7.5 pg/mL

## COc1ccc(/C=C/C(=O)OCCCC[C@H]2C[C@@H]2/C=C/c2ccc3ccccc3c2)cc1OC (relative stereo) [Compound (7), 3,4-Dimethoxycinnamic acid ester of 8-(2-naphthyl)-5,6-trans-5,6-methano-7 E-octene-1-ol]
LTB4 production [1]
  inhibition at 100 µM: 92%
  inhibition at 10 µM: 88%
  inhibition at 1 µM: 80%
  inhibition at 0.1 µM: 20%
LTB4 production [2]; 10^-5 M
  LTB4 production Amount: 12 µg/mL
LTB4 production [2]; 10^-6 M
  LTB4 production Amount: 12 µg/mL
LTB4 production [2]; 10^-7 M
  LTB4 production Amount: 13 µg/mL
[3]; eye drops 0.53% at 6, 4 and 1 hour before, Control 5.5 × 10^5
  Leucocyle in aqueous: 7.5 × 10^5 cells/ml
[3]; eye drops 0.53% at 6, 4 and 1 hour before, Control 33
  Aqueous protein: 41 mg/mL
[3]; eye drops 0.53% at 6, 4 and 1 hour before, Control 320
  LTB4 in aqueous: 170 pg/mL

## O=C(O)CCC[C@H]1C[C@@H]1/C=C/c1ccc2ccccc2c1 (relative stereo) [Reference compound, reference compound]
LTB4 production [1]
  inhibition at 100 µM: 35%
  inhibition at 10 µM: 0%
